According to ChEMBL document CHEMBL1201862, “PubChem BioAssay data set” (2004):
Calls of active or inactive are those of the source.

How the values were obtained:
Caspase-3 [1] = target: T1, Caspase-3 (Homo sapiens, UniProt P42574); type: functional
T1 sequence (P42574 whole entry): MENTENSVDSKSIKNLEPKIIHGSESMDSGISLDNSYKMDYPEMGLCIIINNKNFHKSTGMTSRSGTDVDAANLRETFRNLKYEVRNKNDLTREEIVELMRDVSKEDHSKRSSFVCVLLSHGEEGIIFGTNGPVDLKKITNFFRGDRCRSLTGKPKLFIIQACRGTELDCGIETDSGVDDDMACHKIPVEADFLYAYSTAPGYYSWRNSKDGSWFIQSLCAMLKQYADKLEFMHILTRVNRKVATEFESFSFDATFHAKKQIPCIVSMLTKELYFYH

[2] = target: T2, Sentrin-specific protease 7 (Homo sapiens, UniProt Q9BQF6); type: functional;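 further: Luminescence-based dose-response confirmation of ultra-high-throughput screening hits, measuring inhibition of SENP7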
T2 sequence (Q9BQF6 whole entry): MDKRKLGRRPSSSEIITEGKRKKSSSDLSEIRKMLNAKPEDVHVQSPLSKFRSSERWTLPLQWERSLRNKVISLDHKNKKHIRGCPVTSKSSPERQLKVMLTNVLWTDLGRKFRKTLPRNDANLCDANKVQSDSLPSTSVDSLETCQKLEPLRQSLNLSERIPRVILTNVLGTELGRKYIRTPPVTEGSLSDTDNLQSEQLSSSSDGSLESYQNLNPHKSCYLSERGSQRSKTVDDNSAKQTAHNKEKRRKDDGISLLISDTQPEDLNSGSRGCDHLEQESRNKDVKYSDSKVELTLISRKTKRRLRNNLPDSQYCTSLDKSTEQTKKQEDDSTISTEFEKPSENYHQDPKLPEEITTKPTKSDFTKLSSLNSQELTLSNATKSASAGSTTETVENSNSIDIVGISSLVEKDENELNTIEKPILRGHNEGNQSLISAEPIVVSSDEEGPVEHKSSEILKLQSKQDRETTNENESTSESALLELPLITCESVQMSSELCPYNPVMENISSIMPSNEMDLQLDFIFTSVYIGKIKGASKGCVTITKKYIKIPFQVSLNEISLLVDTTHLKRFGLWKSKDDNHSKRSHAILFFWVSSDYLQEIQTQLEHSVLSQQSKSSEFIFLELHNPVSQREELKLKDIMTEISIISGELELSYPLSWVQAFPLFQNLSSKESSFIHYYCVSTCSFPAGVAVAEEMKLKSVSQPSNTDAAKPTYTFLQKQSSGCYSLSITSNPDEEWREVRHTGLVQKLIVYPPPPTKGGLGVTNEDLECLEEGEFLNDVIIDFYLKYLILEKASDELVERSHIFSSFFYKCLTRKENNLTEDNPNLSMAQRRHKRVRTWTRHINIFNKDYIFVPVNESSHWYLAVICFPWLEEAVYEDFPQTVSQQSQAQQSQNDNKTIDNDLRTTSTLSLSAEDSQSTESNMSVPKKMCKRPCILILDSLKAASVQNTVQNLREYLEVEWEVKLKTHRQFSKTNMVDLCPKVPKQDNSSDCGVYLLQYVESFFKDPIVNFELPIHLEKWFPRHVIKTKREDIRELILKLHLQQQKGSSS

[3] = target: T3, Sentrin-specific protease 6 (Homo sapiens, UniProt Q9GZR1); type: functional
T3 sequence (Q9GZR1 whole entry): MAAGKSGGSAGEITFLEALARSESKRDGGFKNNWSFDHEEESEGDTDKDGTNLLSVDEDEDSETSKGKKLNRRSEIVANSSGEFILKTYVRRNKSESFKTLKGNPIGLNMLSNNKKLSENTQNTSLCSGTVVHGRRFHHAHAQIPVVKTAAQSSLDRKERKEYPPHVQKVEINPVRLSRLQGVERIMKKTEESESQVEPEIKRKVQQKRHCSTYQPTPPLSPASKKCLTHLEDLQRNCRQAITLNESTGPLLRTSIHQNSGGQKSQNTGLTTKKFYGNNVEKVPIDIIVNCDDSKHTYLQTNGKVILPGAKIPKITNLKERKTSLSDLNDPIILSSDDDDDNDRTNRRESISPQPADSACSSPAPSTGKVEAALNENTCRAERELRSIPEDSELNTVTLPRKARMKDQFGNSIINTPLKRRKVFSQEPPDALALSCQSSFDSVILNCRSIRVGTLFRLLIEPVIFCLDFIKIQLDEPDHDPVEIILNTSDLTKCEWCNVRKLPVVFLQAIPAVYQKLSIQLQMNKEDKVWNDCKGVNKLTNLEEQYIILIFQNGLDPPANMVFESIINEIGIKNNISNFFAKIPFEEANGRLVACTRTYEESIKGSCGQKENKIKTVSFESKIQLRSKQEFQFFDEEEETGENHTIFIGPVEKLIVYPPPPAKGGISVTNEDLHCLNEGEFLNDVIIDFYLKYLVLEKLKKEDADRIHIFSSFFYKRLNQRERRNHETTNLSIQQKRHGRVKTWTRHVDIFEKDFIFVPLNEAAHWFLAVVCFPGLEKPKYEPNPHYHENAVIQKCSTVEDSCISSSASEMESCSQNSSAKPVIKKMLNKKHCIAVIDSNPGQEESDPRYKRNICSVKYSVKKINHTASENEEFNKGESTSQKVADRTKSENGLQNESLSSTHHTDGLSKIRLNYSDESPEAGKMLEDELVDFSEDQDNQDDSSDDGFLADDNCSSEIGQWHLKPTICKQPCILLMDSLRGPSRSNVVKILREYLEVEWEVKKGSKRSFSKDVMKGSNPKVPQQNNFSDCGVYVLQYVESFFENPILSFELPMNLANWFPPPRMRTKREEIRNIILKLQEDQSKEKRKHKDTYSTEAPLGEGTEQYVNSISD

[4] = target: T4, Sentrin-specific protease 8 (Homo sapiens, UniProt Q96LD8); type: functional;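 further: luminescence read-out of SENP8 inhibition, dose-response confirmation following an ultra-high-throughput screen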
T4 sequence (Q96LD8 whole entry): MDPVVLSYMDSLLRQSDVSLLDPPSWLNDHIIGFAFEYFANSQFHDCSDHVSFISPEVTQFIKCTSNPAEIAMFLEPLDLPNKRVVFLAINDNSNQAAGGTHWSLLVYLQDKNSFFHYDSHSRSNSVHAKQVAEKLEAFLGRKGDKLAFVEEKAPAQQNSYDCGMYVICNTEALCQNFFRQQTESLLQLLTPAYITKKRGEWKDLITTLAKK

[5] = target: T4, Sentrin-specific protease 8; experiment: inhibition of human SENP8 cleavage activity – biochemical, luminescence, SAR follow-up (AID 504501); type: functional
Caspase-3 [6] = target: T1, Caspase-3; experiment: SAR Analysis of small molecule inhibitors of Sentrin-specific proteases (SENPs) using a Caspase-3 Selectivity assay. [Related pubchem assays (depositor defined):AID2540, AID2599, AID434973, AID489001]; type: functional
[7] = target: T3, Sentrin-specific protease 6; experiment: SAR Analysis of small molecule inhibitors of Sentrin-specific protease 6 (SENP6) using a Luminescent assay. [Related pubchem assays (depositor defined):AID2582, AID2599]; type: functional
HeLa = experiment: ATP-based viability loss in HeLa cells – cell-based, CellTiter-Glo luminescence, cherry-pick samples, cytotoxicity control for MITF activator project, dose response (AID 540259); type: functional; settings: Homo sapiens
[8] = target: T2, Sentrin-specific protease 7; experiment: inhibition of human SENP7 cleavage activity – biochemical, luminescence, SAR follow-up (AID 504497); type: functional
[9] = NIH-3T3 fibroblast cytotoxicity, dose response, cytotoxicity control, cell-based, fluorescence, Alamar Blue, secondary assay (AID 2327); type: functional;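 further: NIH-3T3 mouse fibroblasts cultured with fluconazole at 8 µg/mL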
[10] = luciferase reporter signal suppression in cells – H4 neuroglioma cells, luminescence, dose response (AID 1990); type: functional, cell-based
[11] = Luminescence Cell-Based Dose Response HTS to Identify Inhibitors of 5'UTR Stem-Loop Driven Prion Protein mRNA Translation in H4 Neuroglioblastoma Cells. [Related pubchem assays: 1827 (Project Summary), 1813 (Primary HTS)]; type: functional
[12] = alpha-synuclein stem-loop luciferase translation blockers – H4 neuroglioma cells, luminescence, confirmation (AID 1988); type: functional, cell-based
[13] = fluconazole-exposed Candida albicans growth modulators – fluorescence, retest, confirmation (AID 2467); type: functional, cell-based
[14] = target: T5, Serine/threonine-protein phosphatase (Candida dubliniensis (strain CD36 / CBS 7987 / NCPF 3949 / NRRLY-17841) (Yeast), UniProt B9W6M3); experiment: blockers of CaCl2-induced CDRE-lacZ signaling – S. cerevisiae, luminescence, secondary, dose response (AID 2388); type: functional, cell-based;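 further: yeast reporter cells carrying a calcineurin-responsive lacZ construct stimulated with calcium chloride; luminescent beta-galactosidase reporter signal in whole cells rather than isolated phosphatase activity; potency for inhibition where a drop in reporter signal means calcineurin blockade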
T5 sequence (B9W6M3 whole entry): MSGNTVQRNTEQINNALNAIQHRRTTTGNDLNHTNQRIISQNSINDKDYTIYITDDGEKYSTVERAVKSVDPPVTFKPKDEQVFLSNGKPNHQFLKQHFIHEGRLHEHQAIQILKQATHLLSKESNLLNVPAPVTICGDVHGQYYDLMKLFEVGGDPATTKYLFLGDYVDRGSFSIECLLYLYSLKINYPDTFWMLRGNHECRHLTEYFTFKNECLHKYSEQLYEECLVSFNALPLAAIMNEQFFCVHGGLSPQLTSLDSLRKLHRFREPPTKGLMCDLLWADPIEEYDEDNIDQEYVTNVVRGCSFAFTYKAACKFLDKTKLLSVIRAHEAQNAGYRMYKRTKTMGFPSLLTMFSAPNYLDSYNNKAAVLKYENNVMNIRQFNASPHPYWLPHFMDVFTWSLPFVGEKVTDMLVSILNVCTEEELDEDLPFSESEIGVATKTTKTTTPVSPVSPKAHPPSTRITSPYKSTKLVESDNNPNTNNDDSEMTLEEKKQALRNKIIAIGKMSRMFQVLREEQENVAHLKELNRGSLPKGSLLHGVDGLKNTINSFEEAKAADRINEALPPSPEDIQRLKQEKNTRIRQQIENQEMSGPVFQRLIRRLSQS

[15] = target: T6, High affinity choline transporter 1 (Homo sapiens, UniProt Q9GZV3); experiment: human choline transporter blockers, potency – cell-based, 5-point CRC, membrane potential dye, dose response (AID 504840); type: functional
T6 sequence (Q9GZV3 whole entry): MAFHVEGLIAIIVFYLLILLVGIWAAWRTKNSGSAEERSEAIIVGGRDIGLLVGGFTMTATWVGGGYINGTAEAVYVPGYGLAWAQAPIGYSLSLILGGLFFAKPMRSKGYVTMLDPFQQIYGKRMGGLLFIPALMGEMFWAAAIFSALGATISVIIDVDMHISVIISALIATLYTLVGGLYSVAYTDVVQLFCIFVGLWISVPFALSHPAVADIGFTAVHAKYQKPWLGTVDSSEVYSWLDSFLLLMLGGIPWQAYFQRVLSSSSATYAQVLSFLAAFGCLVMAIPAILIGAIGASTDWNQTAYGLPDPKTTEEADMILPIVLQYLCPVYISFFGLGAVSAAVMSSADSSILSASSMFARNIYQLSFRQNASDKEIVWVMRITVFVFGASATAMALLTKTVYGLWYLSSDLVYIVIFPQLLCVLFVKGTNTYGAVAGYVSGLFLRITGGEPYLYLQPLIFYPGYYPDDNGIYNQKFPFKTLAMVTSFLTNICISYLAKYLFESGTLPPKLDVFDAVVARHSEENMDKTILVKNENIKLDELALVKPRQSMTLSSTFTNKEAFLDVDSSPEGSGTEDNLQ

[16] = target: ATP-dependent molecular chaperone HSP82 (Candida albicans (strain WO-1) (Yeast), UniProt C4YTQ8); experiment: steroid-induced GRE reporter decrease in yeast – S. cerevisiae, luminescence, Hsp90 inhibitor project, dose response (AID 2400); type: functional, cell-based;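 further: beta-galactosidase luminescence from glucocorticoid response element reporter as proxy for Hsp90 function; inhibitor potency where signal loss means Hsp90 inhibition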
Chain of ATP-dependent molecular chaperone HSP82 (C4YTQ8 whole entry): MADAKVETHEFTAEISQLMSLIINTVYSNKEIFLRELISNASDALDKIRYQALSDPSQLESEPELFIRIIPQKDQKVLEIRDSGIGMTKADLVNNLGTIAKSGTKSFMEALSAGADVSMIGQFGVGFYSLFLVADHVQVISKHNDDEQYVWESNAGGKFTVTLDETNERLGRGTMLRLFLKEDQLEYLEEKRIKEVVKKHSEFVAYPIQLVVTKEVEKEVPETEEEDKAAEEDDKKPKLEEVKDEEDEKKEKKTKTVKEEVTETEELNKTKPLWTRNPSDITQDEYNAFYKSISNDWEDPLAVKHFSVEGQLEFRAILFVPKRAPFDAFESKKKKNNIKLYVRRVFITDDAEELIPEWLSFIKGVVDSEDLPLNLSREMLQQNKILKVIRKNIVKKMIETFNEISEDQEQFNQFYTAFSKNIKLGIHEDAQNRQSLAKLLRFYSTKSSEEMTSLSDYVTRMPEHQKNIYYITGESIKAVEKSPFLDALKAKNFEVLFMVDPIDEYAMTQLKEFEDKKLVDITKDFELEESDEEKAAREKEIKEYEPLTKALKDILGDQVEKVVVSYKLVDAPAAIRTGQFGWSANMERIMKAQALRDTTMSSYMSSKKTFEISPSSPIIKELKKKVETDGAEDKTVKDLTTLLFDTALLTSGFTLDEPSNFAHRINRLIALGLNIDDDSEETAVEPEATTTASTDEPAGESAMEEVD

[17] = target: Voltage-dependent T-type calcium channel subunit alpha-1H (Homo sapiens, UniProt O95180); type: functional;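 further: channel activity triggered by adding a high calcium stimulation buffer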
Chain of Voltage-dependent T-type calcium channel subunit alpha-1H (O95180 whole entry): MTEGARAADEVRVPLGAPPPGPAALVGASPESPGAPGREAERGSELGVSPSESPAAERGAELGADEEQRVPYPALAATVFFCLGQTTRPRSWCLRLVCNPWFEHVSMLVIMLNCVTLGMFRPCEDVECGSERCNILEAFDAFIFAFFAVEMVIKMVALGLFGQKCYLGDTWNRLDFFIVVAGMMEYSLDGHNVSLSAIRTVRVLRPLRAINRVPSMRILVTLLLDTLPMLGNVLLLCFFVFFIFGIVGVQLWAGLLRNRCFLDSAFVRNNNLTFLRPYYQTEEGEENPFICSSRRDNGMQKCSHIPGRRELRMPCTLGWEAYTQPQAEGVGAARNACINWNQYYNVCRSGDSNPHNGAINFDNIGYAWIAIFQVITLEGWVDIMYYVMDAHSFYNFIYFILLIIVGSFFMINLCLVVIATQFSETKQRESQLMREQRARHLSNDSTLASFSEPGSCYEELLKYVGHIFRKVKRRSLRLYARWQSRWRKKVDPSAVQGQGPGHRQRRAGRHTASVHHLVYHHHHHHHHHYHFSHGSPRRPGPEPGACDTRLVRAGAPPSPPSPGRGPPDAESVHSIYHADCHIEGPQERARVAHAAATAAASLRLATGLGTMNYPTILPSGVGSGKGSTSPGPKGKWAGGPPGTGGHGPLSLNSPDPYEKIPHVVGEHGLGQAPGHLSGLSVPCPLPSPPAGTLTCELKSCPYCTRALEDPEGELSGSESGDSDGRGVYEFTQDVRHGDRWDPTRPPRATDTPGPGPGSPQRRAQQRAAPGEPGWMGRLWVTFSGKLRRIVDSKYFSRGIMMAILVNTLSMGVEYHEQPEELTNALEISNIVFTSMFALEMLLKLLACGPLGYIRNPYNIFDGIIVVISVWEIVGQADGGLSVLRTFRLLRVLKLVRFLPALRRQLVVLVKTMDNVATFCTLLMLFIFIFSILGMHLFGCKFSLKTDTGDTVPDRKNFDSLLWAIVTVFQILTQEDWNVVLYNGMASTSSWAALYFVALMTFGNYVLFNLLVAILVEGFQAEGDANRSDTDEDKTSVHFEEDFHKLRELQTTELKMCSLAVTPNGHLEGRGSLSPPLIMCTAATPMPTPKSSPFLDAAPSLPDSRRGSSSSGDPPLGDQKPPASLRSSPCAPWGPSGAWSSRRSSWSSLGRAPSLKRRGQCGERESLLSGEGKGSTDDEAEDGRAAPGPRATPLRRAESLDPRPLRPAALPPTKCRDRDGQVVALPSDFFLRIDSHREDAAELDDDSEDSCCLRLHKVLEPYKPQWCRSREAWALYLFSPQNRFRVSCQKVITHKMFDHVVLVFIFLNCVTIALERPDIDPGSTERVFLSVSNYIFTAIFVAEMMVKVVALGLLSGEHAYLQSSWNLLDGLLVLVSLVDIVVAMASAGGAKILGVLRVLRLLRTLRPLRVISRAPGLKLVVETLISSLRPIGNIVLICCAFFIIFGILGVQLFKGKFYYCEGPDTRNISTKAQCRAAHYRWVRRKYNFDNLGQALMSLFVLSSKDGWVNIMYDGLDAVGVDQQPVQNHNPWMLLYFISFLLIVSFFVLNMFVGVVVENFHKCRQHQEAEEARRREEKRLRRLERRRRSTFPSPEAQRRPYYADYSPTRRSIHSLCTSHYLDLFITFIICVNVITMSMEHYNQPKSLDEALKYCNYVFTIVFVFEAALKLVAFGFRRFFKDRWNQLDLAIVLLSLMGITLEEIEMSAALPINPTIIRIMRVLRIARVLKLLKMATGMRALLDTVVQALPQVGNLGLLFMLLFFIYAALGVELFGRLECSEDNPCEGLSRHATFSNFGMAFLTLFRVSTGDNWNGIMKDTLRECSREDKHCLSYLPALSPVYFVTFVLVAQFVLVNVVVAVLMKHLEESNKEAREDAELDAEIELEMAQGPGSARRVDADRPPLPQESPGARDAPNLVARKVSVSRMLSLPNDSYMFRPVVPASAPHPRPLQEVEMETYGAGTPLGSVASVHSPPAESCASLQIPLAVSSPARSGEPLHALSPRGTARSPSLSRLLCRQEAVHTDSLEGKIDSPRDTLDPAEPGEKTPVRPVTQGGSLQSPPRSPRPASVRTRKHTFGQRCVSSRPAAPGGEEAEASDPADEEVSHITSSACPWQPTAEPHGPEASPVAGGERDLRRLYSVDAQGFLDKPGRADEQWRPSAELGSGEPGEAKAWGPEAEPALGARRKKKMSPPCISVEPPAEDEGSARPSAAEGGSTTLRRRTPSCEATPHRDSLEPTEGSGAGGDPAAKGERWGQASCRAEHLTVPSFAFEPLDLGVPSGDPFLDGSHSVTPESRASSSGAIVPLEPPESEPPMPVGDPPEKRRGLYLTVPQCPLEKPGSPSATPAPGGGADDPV

[18] = test system: Streptococcus sp. 'group A'; experiment: Streptococcus pyogenes SK(-)GAS viability under kanamycin – luminescence, BacTiterGlo, confirmation, counter-screen for streptokinase expression inhibitor project, dose response (AID 1900); type: functional, organism-based
Streptococcus = experiment: GAS UMAA2166 growth inhibition – luminescence, BacTiterGlo, counter-screen for streptokinase expression inhibitor project, dose response (AID 1915); type: functional, organism-based;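 further: potency for reduction of bacterial viability or growth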
[19] = THP-1 cell cytotoxicity, dose response, cytotoxicity control for non-replicating M. tuberculosis project (AID 489025); type: functional
[20] = HepG2 cell cytotoxicity, dose response, cytotoxicity control for non-replicating M. tuberculosis project (AID 489018); type: functional; settings: Mycobacterium tuberculosis
[21] = Vero E6 cell cytotoxicity, dose response, cytotoxicity control for non-replicating M. tuberculosis project, secondary assay (AID 492998); type: functional, VeroE6; settings: Vero C1008
cells = type: functional
Beta-galactosidase = Beta-galactosidase (Escherichia coli, UniProt Q8VNN2); experiment: PubChem AID 485352; type: functional
Chain of Beta-galactosidase (Q8VNN2 whole entry): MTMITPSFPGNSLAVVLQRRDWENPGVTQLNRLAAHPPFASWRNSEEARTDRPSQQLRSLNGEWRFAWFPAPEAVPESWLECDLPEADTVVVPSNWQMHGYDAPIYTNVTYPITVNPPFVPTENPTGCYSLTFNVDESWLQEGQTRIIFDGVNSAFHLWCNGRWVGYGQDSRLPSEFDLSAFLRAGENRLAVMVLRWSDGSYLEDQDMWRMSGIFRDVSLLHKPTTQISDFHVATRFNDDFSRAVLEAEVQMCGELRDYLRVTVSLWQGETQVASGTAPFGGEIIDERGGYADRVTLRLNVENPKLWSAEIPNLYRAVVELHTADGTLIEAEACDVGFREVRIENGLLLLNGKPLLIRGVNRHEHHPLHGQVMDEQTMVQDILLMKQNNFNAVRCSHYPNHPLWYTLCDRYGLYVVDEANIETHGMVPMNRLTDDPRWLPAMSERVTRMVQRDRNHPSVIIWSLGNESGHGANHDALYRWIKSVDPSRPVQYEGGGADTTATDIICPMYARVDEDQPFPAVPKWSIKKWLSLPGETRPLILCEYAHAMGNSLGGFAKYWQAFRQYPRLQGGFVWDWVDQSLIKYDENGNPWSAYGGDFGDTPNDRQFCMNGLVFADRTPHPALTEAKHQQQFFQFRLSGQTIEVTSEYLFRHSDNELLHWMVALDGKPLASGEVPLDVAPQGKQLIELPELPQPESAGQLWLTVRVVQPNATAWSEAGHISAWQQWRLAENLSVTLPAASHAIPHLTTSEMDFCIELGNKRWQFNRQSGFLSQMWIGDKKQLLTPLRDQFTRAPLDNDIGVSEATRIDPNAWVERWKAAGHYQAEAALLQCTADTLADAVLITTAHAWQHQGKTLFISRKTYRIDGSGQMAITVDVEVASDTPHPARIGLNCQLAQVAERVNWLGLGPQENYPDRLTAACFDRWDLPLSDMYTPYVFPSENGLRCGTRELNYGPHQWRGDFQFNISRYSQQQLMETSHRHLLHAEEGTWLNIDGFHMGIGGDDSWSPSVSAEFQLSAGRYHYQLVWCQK

[22] = target: Type-1 angiotensin II receptor (Homo sapiens, UniProt P30556); experiment: antagonism of angiotensin II type 1 receptor – cell-based, uHTS hits, selectivity assay for APJ receptor antagonist project, dose response (AID 463214); type: functional;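 further: antagonist potency against angiotensin II stimulated AT1 response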
Chain of Type-1 angiotensin II receptor (P30556 whole entry): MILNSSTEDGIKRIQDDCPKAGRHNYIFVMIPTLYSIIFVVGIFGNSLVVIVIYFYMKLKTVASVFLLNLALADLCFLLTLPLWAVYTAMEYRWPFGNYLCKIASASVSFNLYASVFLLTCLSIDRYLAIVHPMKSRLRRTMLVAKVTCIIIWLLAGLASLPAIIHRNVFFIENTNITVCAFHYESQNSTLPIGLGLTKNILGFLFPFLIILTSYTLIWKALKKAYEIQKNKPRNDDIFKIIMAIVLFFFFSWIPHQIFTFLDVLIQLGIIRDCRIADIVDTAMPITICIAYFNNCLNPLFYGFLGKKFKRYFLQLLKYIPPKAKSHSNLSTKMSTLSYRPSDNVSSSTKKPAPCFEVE

SMILES	IC50 (Caspase-3 [1])	IC50 [2]	IC50 [3]	IC50 [4]	IC50 [5]	IC50 (Caspase-3 [6])	IC50 [7]	IC50 [8]	EC50 [9]	EC50 [13]	EC50 [14]	EC50 [16]	other results
Fc1ccccc1COc1ccc(C(=S)N2CCCC2)cc1	9.99 µM (active)	10.9 µM (active)	17.1 µM (active)	3.21 µM (active)	1.55 µM (active)	0.742 µM (active)	1.17 µM (active)	1.64 µM (active)					AC50 (HeLa): 162 µM (active)
Cc1ccccc1C(=O)O/N=C/c1c(N2CCOCC2)n(C)c2ccccc12									> 160 µM (inactive)	0.212 µM (active)	> 180 µM (inactive)	23.7 µM (active)	EC50 [10]: 0.455 µM (active); EC50 [11]: 11.8 µM (active); EC50 [12]: 4.88 µM (active); IC50 [15]: 21.6 µM (active)
Cc1ccc2nc(-c3cccnc3SCC(=O)N3c4ccccc4CC3C)[nH]c2c1 (stereo not drawn)	4.22 µM (active)	2.9 µM (active)	> 100 µM (inactive)	1.56 µM (active)	6.28 µM (active)	5.3 µM (active)	5.76 µM (active)	5.66 µM (active)					EC50 [17]: 11.2 µM (active)
O=C(Nc1nnc(C2COc3ccccc3O2)o1)c1ccc(F)cc1 (stereo not drawn)									25.4 µM (inconclusive)	0.968 µM (active)	> 180 µM (inactive)	> 150 µM (inactive)	EC50 [18]: 0.98 µM (active); EC50 (Streptococcus): 11.4 µM (active); CC50 [19]: 15.7 µM (active); CC50 [20]: 19.9 µM (active); CC50 [21]: 11.4 µM (active); IC50 (cells): 1.49 µM (active)
O=C(NNc1ncc(C(F)(F)F)cc1Cl)c1c(Cl)cccc1Cl													EC50 (Beta-galactosidase): > 40 µM (inactive); IC50 [22]: > 40 µM (not active)
